According to patent US10131653B2, “Heterocyclic compound” (TAKEDA PHARMACEUTICAL COMPANY LIMITED, priority 2015, dated 2018):
Where a name gives a salt, the structure may show the parent alone.

How the values were obtained:
human OX1 receptor = biological target: T1, human OX1 receptor (Homo sapiens, UniProt O43613); assay: Measurement of orexin receptor antagonistic activity (calcium fluorescence, FLIPRtetra); type: cell-based; details: CHO, 10 μM test compound; CHO cells expressing human OX1 receptor; OX-A 1 nM; read-out: Human Orexin1 receptor inhibition (at 10 μM)
T1 construct: expressed in transfected cells; host or cells: CHO cells
T1 sequence (O43613 1-425): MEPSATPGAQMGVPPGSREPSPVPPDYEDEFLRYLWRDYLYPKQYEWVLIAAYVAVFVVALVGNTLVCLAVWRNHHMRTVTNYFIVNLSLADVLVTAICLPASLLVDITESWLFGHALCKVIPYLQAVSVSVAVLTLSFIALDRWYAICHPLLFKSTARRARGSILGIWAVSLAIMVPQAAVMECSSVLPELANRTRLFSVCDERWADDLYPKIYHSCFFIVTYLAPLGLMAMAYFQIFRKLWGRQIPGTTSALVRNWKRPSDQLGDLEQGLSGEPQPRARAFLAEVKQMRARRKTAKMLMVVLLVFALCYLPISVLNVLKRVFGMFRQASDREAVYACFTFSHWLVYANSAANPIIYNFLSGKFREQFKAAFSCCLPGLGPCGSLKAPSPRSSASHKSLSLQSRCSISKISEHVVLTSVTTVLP
Procedure, shortened: (§1)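 Calcium fluorescence measured by FLIPRtetra every second for 2 min after orexin-A challenge, 1 nM final for OX1 and 0.3 nM final for OX2. Receptor-expressing CHO cells received compound in HEPES-buffered HBSS with 0.1% BSA just before agonist.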

human OX2 receptor = biological target: T2, human OX2 receptor (Homo sapiens, UniProt O43614); assay: as above; type: cell-based; details: CHO, 10 μM test compound; CHO cells expressing human OX2 receptor; OX-A 0.3 nM; read-out: Human Orexin2 receptor inhibition (at 10 μM)
T2 construct: expressed in transfected cells; host or cells: CHO cells
T2 sequence (O43614 1-444): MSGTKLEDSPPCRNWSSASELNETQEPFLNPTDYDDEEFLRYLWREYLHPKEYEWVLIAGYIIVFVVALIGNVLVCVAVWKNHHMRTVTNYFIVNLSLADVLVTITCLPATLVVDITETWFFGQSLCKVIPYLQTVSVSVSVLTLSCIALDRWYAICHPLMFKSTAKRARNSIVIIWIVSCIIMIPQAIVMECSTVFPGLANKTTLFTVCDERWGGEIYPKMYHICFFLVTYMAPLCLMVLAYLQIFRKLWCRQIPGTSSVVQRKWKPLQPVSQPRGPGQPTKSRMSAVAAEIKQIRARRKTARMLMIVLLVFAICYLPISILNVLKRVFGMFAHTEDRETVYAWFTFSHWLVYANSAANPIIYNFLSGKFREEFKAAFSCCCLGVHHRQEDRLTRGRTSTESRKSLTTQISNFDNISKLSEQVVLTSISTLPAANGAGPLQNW
Procedure, shortened: as §1

SMILES	inhibition at 10 µM (human OX1 receptor) [%]	inhibition at 10 µM (human OX2 receptor) [%]
C[C@@H]1CON(c2ncc(F)c(O)n2)CCN1C(=O)c1ccccc1-n1nccn1 [Example 149, ((6R)-2-(5-fluoro-4-hydroxypyrimidin-2-yl)-6-methyl-1,2,5-oxadiazepan-5-yl) (2-(2H-1,2,3-triazol-2-yl)phenyl)methanone]	3	-6
C[C@@H]1CON(c2cc(C3CC3)ncn2)CCN1C(=O)c1ccccc1-n1nccn1 [Example 150, ((6R)-2-(6-cyclopropylpyrimidin-4-yl)-6-methyl-1,2,5-oxadiazepan-5-yl) (2-(2H-1,2,3-triazol-2-yl)phenyl)methanone]	58	99
CCc1ccnc(N2CCN(C(=O)c3ccccc3-n3nccn3)[C@H](C)CO2)n1 [Example 151, ((6R)-2-(4-ethylpyrimidin-2-yl)-6-methyl-1,2,5-oxadiazepan-5-yl) (2-(2H-1,2,3-triazol-2-yl)phenyl)methanone]	81	98
Cc1cc(C#N)nc(N2CCN(C(=O)c3ccccc3-n3nccn3)[C@H](C)CO2)n1 [Example 152, 6-methyl-2-((6R)-6-methyl-5-(2-(2H-1,2,3-triazol-2-yl)benzoyl)-1,2,5-oxadiazepan-2-yl)pyrimidine-4-carbonitrile]	82	99
COc1cc(N2CCN(C(=O)c3ccccc3-n3nccn3)[C@H](C)CO2)nc(OC)n1 [Example 153, ((6R)-2-(2,6-dimethoxypyrimidin-4-yl)-6-methyl-1,2,5-oxadiazepan-5-yl)(2-(2H-1,2,3-triazol-2-yl)phenyl)methanone]	94	99
Cc1cc(N2CCN(C(=O)c3ccccc3-n3nccn3)[C@H](C)CO2)nc(C(C)(C)C)n1 [Example 154, ((6R)-2-(2-tert-butyl-6-methylpyrimidin-4-yl)-6-methyl-1,2,5-oxadiazepan-5-yl)(2-(2H-1,2,3-triazol-2-yl)phenyl)methanone]	97	91
Cc1cc(N2CCN(C(=O)c3ccccc3-n3nccn3)[C@H](C)CO2)nc(C2(C)CC2)n1 [Example 155, ((6R)-6-methyl-2-(6-methyl-2-(1-methylcyclopropyl)pyrimidin-4-yl-1,2,5-oxadiazepan-5-yl)(2-(2H-1,2,3-triazol-2-yl)phenyl)methanone hydrochloride]	100	103
Cc1ccc(C#N)c(N2CCN(C(=O)c3ccccc3-n3nccn3)[C@H](C)CO2)n1 [Example 156, 6-methyl-2-((6R)-6-methyl-5-(2-(2H-1,2,3-triazol-2-yl)benzoyl)-1,2,5-oxadiazepan-2-yl)nicotinonitrile]	18	19
COc1cccc(N2CCN(C(=O)c3ccccc3-n3nccn3)[C@H](C)CO2)n1 [Example 157, ((6R)-2-(6-methoxypyridin-2-yl)-6-methyl-1,2,5-oxadiazepan-5-yl)(2-(2H-1,2,3-triazol-2-yl)phenyl)methanone]	93	91
C[C@@H]1CON(c2cccc(CO)n2)CCN1C(=O)c1ccccc1-n1nccn1 [Example 158, ((6R)-2-(6-(hydroxymethyl)pyridin-2-yl)-6-methyl-1,2,5-oxadiazepan-5-yl)(2-(2H-1,2,3-triazol-2-yl)phenyl)methanone]	18	99
COc1ncnc(N2CCN(C(=O)c3ccccc3-n3nccn3)[C@H](C)CO2)n1 [Example 159, ((6R)-2-(4-methoxy-1,3,5-triazin-2-yl)-6-methyl-1,2,5-oxadiazepan-5-yl)(2-(2H-1,2,3-triazol-2-yl)phenyl)methanone]	16	89
C[C@@H]1CON(c2ncnc3ccn(C)c23)CCN1C(=O)c1cc(F)ccc1-n1nccn1 [Example 165, (5-fluoro-2-(2H-1,2,3-triazol-2-yl)phenyl)((6R)-6-methyl-2-(5-methyl-5H-pyrrolo[3,2-d]pyrimidin-4-yl)-1,2,5-oxadiazepan-5-yl)methanone]	24	24

Continued, values first:

inhibition at 10 µM (human OX1 receptor) [%]	inhibition at 10 µM (human OX2 receptor) [%]	SMILES
53	100	Cc1cc(N2CCN(C(=O)c3ccccc3-n3nccn3)[C@H](C)CO2)nc(C)n1 [Example 148, ((6R)-2-(2,6-dimethylpyrimidin-4-yl)-6-methyl-1,2,5-oxadiazepan-5-yl) (2-(2H-1,2,3-triazol-2-yl)phenyl)methanone]
82	101	COc1cc(N2CCN(C(=O)c3ccccc3-n3nccn3)[C@H](C)CO2)nc(C)n1 [Example 160, ((6R)-2-(6-methoxy-2-methylpyrimidin-4-yl)-6-methyl-1,2,5-oxadiazepan-5-yl)(2-(2H-1,2,3-triazol-2-yl)phenyl)methanone]
46	102	Cc1cc(C)nc(N2CCN(C(=O)c3cc(F)ccc3-n3nccn3)[C@H](C)CO2)n1 [Example 161, ((6R)-2-(4,6-dimethylpyrimidin-2-yl)-6-methyl-1,2,5-oxadiazepan-5-yl)(5-fluoro-2-(2H-1,2,3-triazol-2-yl)phenyl)methanone hydrochloride]
42	100	Cc1cc(N2CCN(C(=O)c3cc(F)ccc3-n3nccn3)[C@H](C)CO2)nc(C)n1 [Example 162, ((6R)-2-(2,6-dimethylpyrimidin-4-yl)-6-methyl-1,2,5-oxadiazepan-5-yl)(5-fluoro-2-(2H-1,2,3-triazol-2-yl)phenyl)methanone]
61	102	Cc1cc(C#N)nc(N2CCN(C(=O)c3cc(F)ccc3-n3nccn3)[C@H](C)CO2)n1 [Example 163, 2-((6R)-5-(5-fluoro-2-(2H-1,2,3-triazol-2-yl)benzoyl)-6-methyl-1,2,5-oxadiazepan-2-yl)-6-methylpyrimidine-4-carbonitrile]
8	43	Cc1csc(N2CCN(C(=O)c3cc(F)ccc3-n3nccn3)[C@H](C)CO2)n1 [Example 164, (5-fluoro-2-(2H-1,2,3-triazol-2-yl)phenyl)((6R)-6-methyl-2-(4-methyl-1,3-thiazol-2-yl)-1,2,5-oxadiazepan-5-yl)methanone]
81	97	Cc1nc(N2CCN(C(=O)c3cc(F)ccc3-n3nccn3)[C@H](C)CO2)nc(C)c1F [Example 166, ((6R)-2-(5-fluoro-4,6-dimethylpyrimidin-2-yl)-6-methyl-1,2,5-oxadiazepan-5yl)(5-fluoro-2-(2H-1,2,3-triazol-2-yl)phenyl)methanone]
100	98	Cc1nc(N2CCN(C(=O)c3cc(F)ccc3-n3nccn3)[C@H](C)CO2)nc(C)c1Cl [Example 167, ((6R)-2-(5-chloro-4,6-dimethylpyrimidin-2-yl)-6-methyl-1,2,5-oxadiazepan-5-yl)(5-fluoro-2-(2H-1,2,3-triazol-2-yl)phenyl)methanone]
95	99	CC[C@@H]1CON(c2cc(C)nc(C)n2)CCN1C(=O)c1ccccc1-n1nccn1 [Example 168, ((6R)-2-(2,6-dimethylpyrimidin-4-yl)-6-ethyl-1,2,5-oxadiazepan-5-yl)(2-(2H-1,2,3-triazol-2-yl)phenyl)methanone]
